# Laboratory results: ChEMBL document CHEMBL1136161, “Novel, potent phenethylamide inhibitors of the hepatitis C virus (HCV) NS3 protease: probing the role of P2 aryloxyprolines with hybrid structures” (Bioorg Med Chem Lett, 2003)
# “And” between values parts separate entries of the source, which are not always exact repeats. Equal entries are not always repeated.
# Biological target: T1, NS3 (Hepatitis C virus, UniProt A3EZJ3)
# Test: Inhibitory concentration against hepatitis C virus (HCV) NS3 protease; call rule not given here
# Design: species or system Hepacivirus hominis
# T1 sequence (A3EZJ3 whole entry): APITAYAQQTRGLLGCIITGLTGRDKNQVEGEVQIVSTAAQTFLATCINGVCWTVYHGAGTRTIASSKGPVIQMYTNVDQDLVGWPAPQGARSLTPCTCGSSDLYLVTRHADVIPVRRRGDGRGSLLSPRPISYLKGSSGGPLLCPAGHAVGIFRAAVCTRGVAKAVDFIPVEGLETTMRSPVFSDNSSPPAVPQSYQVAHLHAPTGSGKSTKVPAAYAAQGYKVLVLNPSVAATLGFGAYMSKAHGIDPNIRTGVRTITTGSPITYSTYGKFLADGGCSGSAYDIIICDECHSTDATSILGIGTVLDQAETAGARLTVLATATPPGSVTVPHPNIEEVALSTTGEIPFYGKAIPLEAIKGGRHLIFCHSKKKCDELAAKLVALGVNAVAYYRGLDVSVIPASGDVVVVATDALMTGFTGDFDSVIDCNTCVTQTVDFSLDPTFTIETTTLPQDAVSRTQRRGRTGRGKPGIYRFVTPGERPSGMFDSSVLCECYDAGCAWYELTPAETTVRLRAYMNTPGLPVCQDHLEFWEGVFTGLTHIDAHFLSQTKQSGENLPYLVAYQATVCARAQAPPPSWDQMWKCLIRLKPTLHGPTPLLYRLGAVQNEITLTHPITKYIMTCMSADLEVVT
row,IC50,SMILES
1,0.054 µM,COc1ccc2c(O[C@@H]3C[C@@H](C(=O)NC(CC(F)F)C(=O)NCCc4c(F)cc(C(=O)O)cc4F)N(C(=O)[C@@H](NC(=O)OC(C)(C)C)C(C)(C)C)C3)cc(-c3ccccc3)nc2c1 (stereo not given in full)
2,11 µM,COc1ccc2c(O[C@@H]3C[C@@H](C(=O)NC(CC(F)F)C(=O)NCCc4ccc(C(=O)O)cc4)N(C(=O)[C@@H](O)C(C)C)C3)cc(-c3ccccc3)nc2c1 (stereo not given in full)
3,38 µM,COc1ccc2c(O[C@@H]3C[C@@H](C(=O)NC(CC(F)F)C(=O)NCCc4c(F)cc(C(=O)O)cc4F)N(C(C)=O)C3)cc(-c3ccccc3)nc2c1 (stereo not given in full)
4,0.33 µM and < 0.5 µM,C=CC1C[C@]1(NC(=O)C1C[C@@H](Oc2ccnc3ccccc23)CN1C(=O)[C@@H](NC(=O)OC(C)(C)C)C(C)(C)C)C(=O)O (stereo not given in full)
5,0.4 µM,COc1ccc2c(O[C@@H]3C[C@@H](C(=O)NC(CC(F)F)C(=O)NCCc4ccc(C(=O)O)cc4)N(C(=O)[C@@H](NC(=O)OCC(C)C)C(C)C)C3)cc(-c3ccccc3)nc2c1 (stereo not given in full)
6,0.025 µM,C=CC1C[C@]1(NC(=O)C1C[C@@H](Oc2cc(-c3ccccc3)nc3cc(OC)ccc23)CN1C(=O)[C@@H](NC(=O)OC(C)(C)C)C(C)(C)C)C(=O)O (stereo not given in full)
7,0.18 µM,COc1ccc2c(O[C@@H]3CC(C(=O)NC(CC(F)F)C(=O)O)N(C(=O)[C@@H](NC(=O)OC(C)(C)C)C(C)(C)C)C3)cc(-c3ccccc3)nc2c1 (stereo not given in full)

# Biological target: T1, NS3
# Test: Inhibitory concentration against hepatitis C virus (HCV) NS3 protease; Not active
# Design: species or system Hepacivirus hominis
row,IC50,SMILES
1,Not Active,C=CC1CC1(NC(=O)C1C[C@@H](Oc2ccnc3ccccc23)CN1C(=O)[C@@H](NC(=O)OC(C)(C)C)C(C)(C)C)C(=O)NCCc1ccc(C(=O)O)cc1 (stereo not given in full)
2,Not Active,C=CC1C[C@@]1(NC(=O)C1C[C@@H](Oc2ccnc3ccccc23)CN1C(=O)[C@@H](NC(=O)OC(C)(C)C)C(C)(C)C)C(=O)O (stereo not given in full)

# Biological target: T1, NS3
# Test: Inhibitory concentration against hepatitis C virus (HCV) NS3 protease; Not active at >> 100 uM
# Design: species or system Hepacivirus hominis
row,IC50,SMILES
1,Not Active,COc1ccc2c(O[C@@H]3C[C@@H](C(=O)NC(CC(F)F)C(=O)NCCc4ccc(C(=O)O)cc4)N(C(=O)C(C)(C)C)C3)cc(-c3ccccc3)nc2c1 (stereo not given in full)
